Measured values taken from US9850225B2, “Compounds useful as immunomodulators” (BRISTOL-MYERS SQUIBB COMPANY, priority 2014, dated 2017).

biological target: PD-1/PD-L1 interaction (PD-1-Ig / PD-L1-His) (Homo sapiens (Human), UniProt Q9NZQ7); experiment: PD-1/PD-L1 Homogenous Time-Resolved Fluorescence (HTRF) binding assay; details: PD-1/PD-L1 HTRF binding assay; numeric value; read-out: Range or IC50
Procedure, shortened: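 HTRF detection used 1 nM europium-cryptate anti-Ig and 20 nM APC anti-His. Compounds first saw 10 nM PD-L1-His for 15 min, and 20 nM PD-1-Ig was then added for another 15 min. Buffer was dPBS plus 0.1% BSA and 0.05% Tween-20. All concentrations are final.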

Sequence of PD-1/PD-L1 interaction (PD-1-Ig / PD-L1-His) (Q9NZQ7 other isoform, or with tags, fused parts or gaps): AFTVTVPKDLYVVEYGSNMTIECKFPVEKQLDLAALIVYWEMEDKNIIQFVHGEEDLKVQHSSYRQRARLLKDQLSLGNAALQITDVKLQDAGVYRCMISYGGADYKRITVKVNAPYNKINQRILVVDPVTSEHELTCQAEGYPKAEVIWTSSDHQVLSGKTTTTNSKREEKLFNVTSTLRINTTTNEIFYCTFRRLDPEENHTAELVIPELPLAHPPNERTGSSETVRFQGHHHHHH

`CC(=O)NCCNCc1cc(C)c(OCc2cccc(-c3ccc4c(c3)OCCO4)c2C#N)cc1OCc1cncc(C#N)c1` [Example 1305, N-(2-(4-(2-cyano-3-(2,3-dihydrobenzo[b][1,4]dioxin-6-yl)benzyloxy)-2-((5-cyanopyridin-3-yl)methoxy)-5-methylbenzylamino)ethyl)acetamide] was tested. Which IC50 did it give?
The IC50 was 0.00092 µM.

same assay, conditions: PD-1/PD-L1 HTRF binding assay; value given as range class; read-out: Range or IC50

How did the IC50 turn out when `CC(=O)NCCNCc1cc(C)c(OCc2cccc(-c3ccc4c(c3)OCCO4)c2C)cc1OCCCCC#N` [Example 1294, N-(2-(2-(4-cyanobutoxy)-4-(3-(2,3-dihydrobenzo[b][1,4]dioxin-6-yl)-2-methylbenzyloxy)-5-methylbenzylamino)ethyl)acetamide] was run?
The IC50 was 0.01 to 0.1 µM.

How did the IC50 turn out when `Cc1cc(CNC[C@@H](O)CC(=O)O)c(OCCCCC#N)cc1OCc1cccc(-c2ccc3c(c2)OCCO3)c1C` [Example 1295, (S)-4-(2-(4-cyanobutoxy)-4-(3-(2,3-dihydrobenzo[b][1,4]dioxin-6-yl)-2-methylbenzyloxy)-5-methylbenzylamino)-3-hydroxybutanoic acid] was run?
The IC50 was 0.0006 to 0.01 µM.

`Cc1cc(CN2CCCC[C@H]2C(=O)O)c(OCCCCC#N)cc1OCc1cccc(-c2ccc3c(c2)OCCO3)c1C` [Example 1296, (S)-1-(2-(4-cyanobutoxy)-4-(3-(2,3-dihydrobenzo[b][1,4]dioxin-6-yl)-2-methylbenzyloxy)-5-methylbenzyl)piperidine-2-carboxylic acid] was tested. Which IC50 did it give?
Its IC50 is 0.01 to 0.1 µM.

With `Cc1cc(CN[C@@](C)(CO)C(=O)O)c(OCCCCC#N)cc1OCc1cccc(-c2ccc3c(c2)OCCO3)c1C` [Example 1297, (S)-2-(2-(4-cyanobutoxy)-4-(3-(2,3-dihydrobenzo[b][1,4]dioxin-6-yl)-2-methylbenzyloxy)-5-methylbenzylamino)-3-hydroxy-2-methylpropanoic acid] as the compound, how does the IC50 read?
Its IC50 is 0.0006 to 0.01 µM.

For `Cc1c(COc2cc(OCc3cncc(C#N)c3)c(CN3CCCC[C@H]3C(=O)O)cc2Br)cccc1-c1ccccc1` [Example 1298, (S)-1-(5-bromo-2-((5-cyanopyridin-3-yl)methoxy)-4-((2-methylbiphenyl-3-yl)methoxy)benzyl)piperidine-2-carboxylic acid], which IC50 is on record?
The IC50 was 0.0006 to 0.01 µM.

`CC(=O)NCCNCc1cc(Br)c(OCc2cccc(-c3ccc4c(c3)OCCO4)c2C)cc1OCc1cccc(C#N)c1` [Example 1299, N-(2-((5-bromo-2-((3-cyanobenzyl)oxy)-4-((3-(2,3-dihydrobenzo[b][1,4]dioxin-6-yl)-2-methylbenzyl)oxy)benzyl)amino)ethyl)acetamide] was tested. Which IC50 did it give?
Its IC50 is 0.0006 to 0.01 µM.

For `Cc1c(COc2cc(OCc3cccc(C#N)c3)c(CNC[C@@H](O)CC(=O)O)cc2Br)cccc1-c1ccc2c(c1)OCCO2` [Example 1300, (S)-4-((5-bromo-2-((3-cyanobenzyl)oxy)-4-((3-(2,3-dihydrobenzo[b][1,4]dioxin-6-yl)-2-methylbenzyl)oxy)benzyl)amino)-3-hydroxybutanoic acid], which IC50 is on record?
The IC50 was 0.0006 to 0.01 µM.

Which IC50 does the source give for `Cc1c(COc2cc(OCc3cccc(C#N)c3)c(CN[C@@H](CO)C(=O)O)cc2Br)cccc1-c1ccc2c(c1)OCCO2` [Example 1301, (S)-2-((5-bromo-2-((3-cyanobenzyl)oxy)-4-((3-(2,3-dihydrobenzo[b][1,4]dioxin-6-yl)-2-methylbenzyl)oxy)benzyl)amino)-3-hydroxypropanoic acid] here?
The IC50 was 0.0006 to 0.01 µM.

`Cc1c(COc2cc(OCc3cccc(C#N)c3)c(CN3CCCC[C@H]3C(=O)O)cc2Br)cccc1-c1ccc2c(c1)OCCO2` [Example 1302, (S)-1-(5-bromo-2-((3-cyanobenzyl)oxy)-4-((3-(2,3-dihydrobenzo[b][1,4]dioxin-6-yl)-2-methylbenzyl)oxy)benzyl)piperidine-2-carboxylic acid] was tested. Which IC50 did it give?
Its IC50 is 0.0006 to 0.01 µM.

`Cc1c(COc2cc(OCc3cccc(C#N)c3)c(CN[C@](C)(CO)C(=O)O)cc2Br)cccc1-c1ccc2c(c1)OCCO2` [Example 1303, (R)-2-((5-bromo-2-((3-cyanobenzyl)oxy)-4-((3-(2,3-dihydrobenzo[b][1,4]dioxin-6-yl)-2-methylbenzyl)oxy)benzyl)amino)-3-hydroxy-2-methylpropanoic acid] was tested. Which IC50 did it give?
Its IC50 is 0.0006 to 0.01 µM.

For `Cc1c(COc2cc(OCc3cccc(C#N)c3)c(CN[C@@](C)(CO)C(=O)O)cc2Br)cccc1-c1ccc2c(c1)OCCO2` [Example 1304, (S)-2-((5-bromo-2-((3-cyanobenzyl)oxy)-4-((3-(2,3-dihydrobenzo[b][1,4]dioxin-6-yl)-2-methylbenzyl)oxy)benzyl)amino)-3-hydroxy-2-methylpropanoic acid], which IC50 is on record?
Its IC50 is 0.0006 to 0.01 µM.

How did the IC50 turn out when `CC(=O)NCCNCc1cc(C)c(OCc2cccc(-c3ccc4c(c3)OCCO4)c2C#N)cc1OCc1cncc(C#N)c1` [Example 1305, N-(2-(4-(2-cyano-3-(2,3-dihydrobenzo[b][1,4]dioxin-6-yl)benzyloxy)-2-((5-cyanopyridin-3-yl)methoxy)-5-methylbenzylamino)ethyl)acetamide] was run?
Its IC50 is 0.0006 to 0.01 µM.

For `Cc1cc(CNC[C@@H](O)CC(=O)O)c(OCc2cncc(C#N)c2)cc1OCc1cccc(-c2ccc3c(c2)OCCO3)c1C#N` [Example 1307, (S)-4-(4-(2-cyano-3-(2,3-dihydrobenzo[b][1,4]dioxin-6-yl)benzyloxy)-2-((5-cyanopyridin-3-yl)methoxy)-5-methylbenzylamino)-3-hydroxybutanoic acid], which IC50 is on record?
Its IC50 is 0.0006 to 0.01 µM.

With `Cc1cc(CN[C@@](C)(CO)C(=O)O)c(OCc2cncc(C#N)c2)cc1OCc1cccc(-c2ccc3c(c2)OCCO3)c1C#N` [Example 1308, (S)-2-(4-(2-cyano-3-(2,3-dihydrobenzo[b][1,4]dioxin-6-yl)benzyloxy)-2-((5-cyanopyridin-3-yl)methoxy)-5-methylbenzylamino)-3-hydroxy-2-methylpropanoic acid] as the compound, how does the IC50 read?
The IC50 was 0.0006 to 0.01 µM.

Which IC50 does the source give for `Cc1cc(CN2CCCC[C@H]2C(=O)O)c(OCc2cncc(C#N)c2)cc1OCc1cccc(-c2ccc3c(c2)OCCO3)c1C#N` [Example 1309, (S)-1-(4-(2-cyano-3-(2,3-dihydrobenzo[b][1,4]dioxin-6-yl)benzyloxy)-2-((5-cyanopyridin-3-yl)methoxy)-5-methylbenzyl)piperidine-2-carboxylic acid] here?
The IC50 was 0.0006 to 0.01 µM.

Which IC50 does the source give for `Cc1cc(CN[C@H](CO)C(=O)O)c(OCc2cncc(C#N)c2)cc1OCc1cccc(-c2ccc3c(c2)OCCO3)c1C#N` [Example 1310, (R)-2-(4-(2-cyano-3-(2,3-dihydrobenzo[b][1,4]dioxin-6-yl)benzyloxy)-2-((5-cyanopyridin-3-yl)methoxy)-5-methylbenzylamino)-3-hydroxypropanoic acid] here?
The IC50 was 0.0006 to 0.01 µM.

With `Cc1cc(CN[C@](C)(CO)C(=O)O)c(OCc2cncc(C#N)c2)cc1OCc1cccc(-c2ccc3c(c2)OCCO3)c1C#N` [Example 1311, (R)-2-(4-(2-cyano-3-(2,3-dihydrobenzo[b][1,4]dioxin-6-yl)benzyloxy)-2-((5-cyanopyridin-3-yl)methoxy)-5-methylbenzylamino)-3-hydroxy-2-methylpropanoic acid] as the compound, how does the IC50 read?
The IC50 was 0.0006 to 0.01 µM.

Which IC50 does the source give for `N#Cc1cccc(COc2cc(OCc3cccc(-c4ccc5c(c4)OCCO5)c3C#N)c(Br)cc2CN[C@@H](CO)C(=O)O)c1` [Example 1312, (S)-2-((5-bromo-4-((2-cyano-3-(2,3-dihydrobenzo[b][1,4]dioxin-6-yl)benzyl)oxy)-2-((3-cyanobenzyl)oxy)benzyl)amino)-3-hydroxypropanoic acid] here?
Its IC50 is 0.0006 to 0.01 µM.

With `N#Cc1cccc(COc2cc(OCc3cccc(-c4ccc5c(c4)OCCO5)c3C#N)c(Br)cc2CN2CCCC[C@H]2C(=O)O)c1` [Example 1313, (S)-1-(5-bromo-4-((2-cyano-3-(2,3-dihydrobenzo[b][1,4]dioxin-6-yl)benzyl)oxy)-2-((3-cyanobenzyl)oxy)benzyl)piperidine-2-carboxylic acid] as the compound, how does the IC50 read?
Its IC50 is 0.0006 to 0.01 µM.

Which IC50 does the source give for `N#Cc1cccc(COc2cc(OCc3cccc(-c4ccc5c(c4)OCCO5)c3C#N)c(Br)cc2CNC[C@@H](O)CC(=O)O)c1` [Example 1314, (S)-4-((5-bromo-4-((2-cyano-3-(2,3-dihydrobenzo[b][1,4]dioxin-6-yl)benzyl)oxy)-2-((3-cyanobenzyl)oxy)benzyl)amino)-3-hydroxybutanoic acid] here?
Its IC50 is 0.0006 to 0.01 µM.

Which IC50 does the source give for `CC(=O)NCCNCc1cc(Br)c(OCc2cccc(-c3ccc4c(c3)OCCO4)c2C#N)cc1OCc1cccc(C#N)c1` [Example 1315, N-(2-((5-bromo-4-((2-cyano-3-(2,3-dihydrobenzo[b][1,4]dioxin-6-yl)benzyl)oxy)-2-((3-cyanobenzyl)oxy)benzyl)amino)ethyl)acetamide] here?
The IC50 was 0.0006 to 0.01 µM.

`Cc1c(COc2cc(OCc3cncc(C#N)c3)c(CNC[C@@H](O)CC(=O)O)cc2Br)cccc1-c1ccc2c(c1)OCCO2` [Example 1316, (S)-4-(5-bromo-2-((5-cyanopyridin-3-yl)methoxy)-4-(3-(2,3-dihydrobenzo[b][1,4]dioxin-6-yl)-2-methylbenzyloxy)benzylamino)-3-hydroxybutanoic acid] was tested. Which IC50 did it give?
The IC50 was 0.0006 to 0.01 µM.

For `CC(=O)NCCNCc1cc(Br)c(OCc2cccc(-c3ccc4c(c3)OCCO4)c2C)cc1OCc1cncc(C#N)c1` [Example 1317, N-(2-(5-bromo-2-((5-cyanopyridin-3-yl)methoxy)-4-(3-(2,3-dihydrobenzo[b][1,4]dioxin-6-yl)-2-methylbenzyloxy)benzylamino)ethyl)acetamide], which IC50 is on record?
Its IC50 is 0.0006 to 0.01 µM.

`Cc1c(COc2cc(OCc3cncc(C#N)c3)c(CN[C@@H](CO)C(=O)O)cc2Br)cccc1-c1ccc2c(c1)OCCO2` [Example 1318, (S)-2-(5-bromo-2-((5-cyanopyridin-3-yl)methoxy)-4-(3-(2,3-dihydrobenzo[b][1,4]dioxin-6-yl)-2-methylbenzyloxy)benzylamino)-3-hydroxypropanoic acid] was tested. Which IC50 did it give?
The IC50 was 0.0006 to 0.01 µM.

How did the IC50 turn out when `Cc1c(COc2cc(OCc3cncc(C#N)c3)c(CN3CCCC[C@H]3C(=O)O)cc2Br)cccc1-c1ccc2c(c1)OCCO2` [Example 1319, (S)-1-(5-bromo-2-((5-cyanopyridin-3-yl)methoxy)-4-(3-(2,3-dihydrobenzo[b][1,4]dioxin-6-yl)-2-methylbenzyloxy)benzyl)piperidine-2-carboxylic acid] was run?
The IC50 was 0.0006 to 0.01 µM.

`Cc1c(COc2cc(OCc3cncc(C#N)c3)c(CN[C@](C)(CO)C(=O)O)cc2Br)cccc1-c1ccc2c(c1)OCCO2` [Example 1320, (R)-2-(5-bromo-2-((5-cyanopyridin-3-yl)methoxy)-4-(3-(2,3-dihydrobenzo[b][1,4]dioxin-6-yl)-2-methylbenzyloxy)benzylamino)-3-hydroxy-2-methylpropanoic acid] was tested. Which IC50 did it give?
Its IC50 is 0.0006 to 0.01 µM.
